Measured values published in PubChem BioAssay AID256 (DTP/NCI, 2004).
“And” between values parts separate entries of the source, which are not always exact repeats. Equal entries are not always repeated. Inconclusive results and toxic doses are left out.

Test system: CD2F1 mice, L1210 leukemia ip, survival T/C
Assay: NCI In Vivo Anticancer Drug Screen. Data for tumor model L1210 Leukemia (intraperitoneal) in CD2F1 (CDF1) mice
Conditions: higher = longer survival
In short: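 Implant tumor; dose compound or vehicle; measure endpoint in both groups; report treated divided by control.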

[1] = endpoint: mean survival time, dose: 50.0 mg/kg/injection, schedule: Q01DX001 (ip), vehicle: Klucel (hydroxypropylcellulose) (HPC)
[2] = endpoint: mean survival time, dose: 100.0 mg/kg/injection, schedule: Q01DX001 (ip), vehicle: Klucel (hydroxypropylcellulose) (HPC)
[3] = endpoint: mean survival time, dose: 25.0 mg/kg/injection, schedule: Q04DX003 (ip), vehicle: saline with Tween-80
[4] = endpoint: mean survival time, dose: 100.0 mg/kg/injection, schedule: Q04DX003 (ip), vehicle: saline with Tween-80
[5] = endpoint: mean survival time, dose: 200.0 mg/kg/injection, schedule: Q04DX003 (ip), vehicle: saline with Tween-80
[6] = endpoint: mean survival time, dose: 400.0 mg/kg/injection, schedule: Q04DX003 (ip), vehicle: saline with Tween-80
[7] = endpoint: mean survival time, dose: 25.0 mg/kg/injection, schedule: Q01DX009 (ip), vehicle: saline with Tween-80
[8] = endpoint: mean survival time, dose: 50.0 mg/kg/injection, schedule: Q01DX009 (ip), vehicle: saline with Tween-80
[9] = endpoint: mean survival time, dose: 100.0 mg/kg/injection, schedule: Q01DX009 (ip), vehicle: saline with Tween-80
[10] = endpoint: mean survival time, dose: 200.0 mg/kg/injection, schedule: Q01DX009 (ip), vehicle: saline with Tween-80
[11] = endpoint: mean survival time, dose: 400.0 mg/kg/injection, schedule: Q01DX009 (ip), vehicle: saline with Tween-80
[12] = endpoint: mean survival time, dose: 100.0 mg/kg/injection, schedule: Q01DX001 (ip), vehicle: saline with Tween-80
[13] = endpoint: mean survival time, dose: 100.0 mg/kg/injection, schedule: Q04DX002 (ip), vehicle: saline with Tween-80
[14] = endpoint: mean survival time, dose: 200.0 mg/kg/injection, schedule: Q01DX001 (ip), vehicle: saline with Tween-80
[15] = endpoint: mean survival time, dose: 200.0 mg/kg/injection, schedule: Q04DX002 (ip), vehicle: saline with Tween-80
[16] = endpoint: mean survival time, dose: 400.0 mg/kg/injection, schedule: Q01DX001 (ip), vehicle: saline with Tween-80
[17] = endpoint: mean survival time, dose: 100.0 mg/kg/injection, schedule: Q01DX009 (ip), vehicle: other
[18] = endpoint: mean survival time, dose: 200.0 mg/kg/injection, schedule: Q01DX009 (ip), vehicle: other
[19] = endpoint: mean survival time, dose: 400.0 mg/kg/injection, schedule: Q01DX009 (ip), vehicle: other
[20] = endpoint: mean survival time, dose: 6.25 mg/kg/injection, schedule: Q04DX003 (ip), vehicle: saline
[21] = endpoint: mean survival time, dose: 12.5 mg/kg/injection, schedule: Q04DX003 (ip), vehicle: saline
[22] = endpoint: mean survival time, dose: 25.0 mg/kg/injection, schedule: Q04DX003 (ip), vehicle: saline

In the case of Cc1ccc(Nc2nc(N)nc(N)c2N=O)cc1C, the T/C [1] was 90 % of control, the T/C [2] was 87 % of control and the T/C (endpoint: mean survival time, dose: 200.0 mg/kg/injection, schedule: Q01DX001 (ip), vehicle: Klucel (hydroxypropylcellulose) (HPC)) was 98 % of control.
With COC(=O)c1cc2c3ccccc3ncc2c2ccccc12 the T/C [3] was 89 % of control, the T/C (endpoint: mean survival time, dose: 50.0 mg/kg/injection, schedule: Q04DX003 (ip), vehicle: saline with Tween-80) was 89 % of control and the T/C [4] was 87 % of control. The T/C [5] was 89 % of control and the T/C [6] was 89 % of control.
In the case of [NH2-].[NH2-].[NH2-].[NH2-].[Pt+4], the T/C [7] was 92 % of control and the T/C (endpoint: mean survival time, dose: 100.0 mg/kg/injection, schedule: Q04DX003 (ip), vehicle: saline) was 98 % of control.
For ClC1=C(Cl)C2(Cl)C=CC1(Cl)C2(Cl)Cl, the T/C [7] was 97 % of control, the T/C [8] was 90 % of control and the T/C [4] was 105 % of control.
In the case of Cc1ccccc1N1C(=O)CSC1=S, the T/C [9] was 98 % of control and the T/C [10] was 106 % of control.
Cc1cc(N=Nc2ccccc2)cc(C)c1N was tested, and the T/C [9] was 96 % of control, the T/C [4] was 97 % of control and the T/C [10] was 102 % of control. For the same compound, the T/C [5] was 98 % of control, the T/C [11] was 98 % of control and the T/C [6] was 110 % of control.
With COc1cc2c(c(OC)c1OC)-c1c(cc3c(c1OC)OCO3)CC(C)C(C)(O)C2OC(=O)c1ccccc1 (configuration not stated) the T/C (endpoint: median survival time, dose: 25.0 mg/kg/injection, schedule: Q01DX009 (ip), vehicle: saline + Tween-80 + alcohol) was 100 % of control, the T/C (endpoint: median survival time, dose: 50.0 mg/kg/injection, schedule: Q01DX009 (ip), vehicle: saline + Tween-80 + alcohol) was 102 % of control and the T/C (endpoint: median survival time, dose: 100.0 mg/kg/injection, schedule: Q01DX009 (ip), vehicle: saline + Tween-80 + alcohol) was 107 % of control. The T/C (endpoint: median survival time, dose: 200.0 mg/kg/injection, schedule: Q01DX009 (ip), vehicle: saline + Tween-80 + alcohol) was 102 % of control and the T/C (endpoint: median survival time, dose: 400.0 mg/kg/injection, schedule: Q01DX009 (ip), vehicle: saline + Tween-80 + alcohol) was 98 % of control.
CCOC(=O)NC(=O)OCC was tested, and the T/C (endpoint: mean survival time, dose: 100.0 mg/kg/injection, schedule: Q01DX001 (ip), vehicle: saline sonified) was 102 % of control, the T/C (endpoint: mean survival time, dose: 200.0 mg/kg/injection, schedule: Q01DX001 (ip), vehicle: saline sonified) was 107 % of control and the T/C (endpoint: mean survival time, dose: 400.0 mg/kg/injection, schedule: Q01DX001 (ip), vehicle: saline sonified) was 100 % of control.
In the case of O=C(OC(C(=O)O)C(OC(=O)c1ccccc1)C(=O)O)c1ccccc1 (configuration not stated) (tested in a mixture with another compound), the T/C (endpoint: mean survival time, dose: 50.0 mg/kg/injection, schedule: Q04DX002 (ip), vehicle: saline with Tween-80) was 92 % of control, the T/C [12] was 105 % of control and the T/C [13] was 106 % of control. The T/C [4] was 101 % of control, the T/C [14] was 100 % of control and the T/C [15] was 95 % of control. For the same compound, the T/C [5] was 106 % of control, the T/C [16] was 97 % of control and the T/C [6] was 98 % of control.
In the case of c1ccc2c(c1)c1ccccc1c1nc3c(nc21)CCCC3, the T/C [4] was 102 % of control, the T/C [5] was 96 % of control and the T/C [6] was 96 % of control.
With CC(C)(C)OC(=O)NNC(=O)c1ccc([N+](=O)[O-])cc1 the T/C (endpoint: mean survival time, dose: 6.25 mg/kg/injection, schedule: Q01DX009 (ip), vehicle: alcohol) was 172 % of control, the T/C (endpoint: mean survival time, dose: 12.5 mg/kg/injection, schedule: Q01DX009 (ip), vehicle: alcohol) was 100 % of control and the T/C (endpoint: mean survival time, dose: 25.0 mg/kg/injection, schedule: Q01DX009 (ip), vehicle: alcohol) was 97 % of control.
For CCOC(=O)C(C)(C)CN1COCC1(C)C, the T/C [12] was 112 % of control and the T/C [14] was 109 % of control.
With NNC(=O)c1cc(Cl)cc(C(=O)NN)n1 the T/C [8] was 97 % of control.
O=C(O)c1cccc(F)c1Br was tested, and the T/C [13] was 95 % of control, the T/C [15] was 95 % of control and the T/C (endpoint: mean survival time, dose: 400.0 mg/kg/injection, schedule: Q04DX002 (ip), vehicle: saline with Tween-80) was 87 % of control.
Nc1nc2c(c(=O)[nH]1)CN(c1ccc(Cl)cc1)C2 was tested, and the T/C (endpoint: mean survival time, dose: 75.0 mg/kg/injection, schedule: Q01DX001 (ip), vehicle: saline) was 98 % of control, the T/C (endpoint: mean survival time, dose: 150.0 mg/kg/injection, schedule: Q01DX001 (ip), vehicle: saline) was 104 % of control and the T/C (endpoint: mean survival time, dose: 300.0 mg/kg/injection, schedule: Q01DX001 (ip), vehicle: saline) was 93 % of control.
For O=S(=O)(C#Cc1ccccc1)c1ccccc1, the T/C (endpoint: mean survival time, dose: 25.0 mg/kg/injection, schedule: Q01DX001 (ip), vehicle: Klucel (hydroxypropylcellulose) (HPC)) was 95 % of control, the T/C [1] was 102 % of control and the T/C [2] was 100 % of control.
CC(CCc1ccccc1)NC1=NCCO1 (configuration not stated) was tested, and the T/C [9] was 102 % of control, the T/C [4] was 98 % of control and the T/C [10] was 95 % of control. For the same compound, the T/C [5] was 103 % of control, the T/C [11] was 98 % of control and the T/C [6] was 95 % of control.
With Nc1ncnc2c1ncn2C1OC(CO)C2NP(=O)(N(CCCl)CCCl)OC21 (configuration not stated) the T/C (endpoint: mean survival time, dose: 15.6 mg/kg/injection, schedule: Q01DX001 (ip), vehicle: distilled water + Tween-80) was 98 % of control and 101 % of control, the T/C (endpoint: mean survival time, dose: 31.3 mg/kg/injection, schedule: Q01DX001 (ip), vehicle: distilled water + Tween-80) was 101 % of control and the T/C (endpoint: mean survival time, dose: 62.5 mg/kg/injection, schedule: Q01DX001 (ip), vehicle: distilled water + Tween-80) was 101 % of control.
In the case of Oc1ccc(I)cc1, the T/C [17] was 96 % of control, the T/C [18] was 103 % of control and the T/C [19] was 111 % of control.
With CC(=O)Oc1ccc(C2NNC3(O)C(=O)N(C4CCCCC4)CC23)cc1 (configuration not stated) the T/C [4] was 90 % of control, the T/C [5] was 94 % of control and the T/C [6] was 98 % of control.
O=[N+]([O-])O.O=[N+]([O-])O.[NH-]C(c1ccccc1)C([NH-])c1ccccc1.[Pt+2] (configuration not stated) was tested, and the T/C [20] was 168 % of control, the T/C (endpoint: mean survival time, dose: 12.5 mg/kg/injection, schedule: Q04DX003 (ip), vehicle: saline with Tween-80) was 158 % of control and the T/C [21] was 189 % of control. The T/C [3] was 168 % of control and the T/C [22] was 195 % of control.
For CN(C)N=Nc1ccc(S(N)(=O)=O)cc1, the T/C (endpoint: mean survival time, dose: 18.75 mg/kg/injection, schedule: Q01DX009 (ip), vehicle: Klucel (hydroxypropylcellulose) (HPC)) was 106 % of control, the T/C (endpoint: mean survival time, dose: 37.5 mg/kg/injection, schedule: Q01DX009 (ip), vehicle: Klucel (hydroxypropylcellulose) (HPC)) was 124 % of control and the T/C (endpoint: mean survival time, dose: 150.0 mg/kg/injection, schedule: Q01DX009 (ip), vehicle: Klucel (hydroxypropylcellulose) (HPC)) was 118 % of control.
In the case of O=C(CC(O)(C(F)(F)F)C(F)(F)F)c1ccc([N+](=O)[O-])cc1, the T/C [17] was 97 % of control, the T/C [18] was 97 % of control and the T/C [19] was 101 % of control.
In the case of Cc1ccc(CO)cc1C, the T/C [8] was 101 % of control, the T/C [9] was 97 % of control and the T/C [10] was 101 % of control.
In the case of C/C=C1\CC2C=CC1C2 (configuration not stated) (tested in a mixture with another compound), the T/C (endpoint: mean survival time, dose: 80.5 mg/kg/injection, schedule: Q01DX009 (ip), vehicle: saline with Tween-80) was 98 % of control and the T/C (endpoint: mean survival time, dose: 161.0 mg/kg/injection, schedule: Q01DX009 (ip), vehicle: saline with Tween-80) was 87 % of control.
For CN(C)C/C(=N\Oc1ccc([N+](=O)[O-])cc1[N+](=O)[O-])c1ccc(Cl)cc1, the T/C [8] was 91 % of control, the T/C [12] was 98 % of control and the T/C [9] was 88 % of control. The T/C [14] was 102 % of control, the T/C [10] was 91 % of control and the T/C [16] was 95 % of control.
With CCCCCCCCCCCCOC(=O)C[n+]1cccc(C(=O)Nc2ccccc2)c1 the T/C [7] was 95 % of control and the T/C [4] was 102 % of control.
For COc1c(C)c2c(c(O)c1CC(=O)Nc1ccccc1C(=O)O)C(=O)OC2, the T/C (endpoint: mean survival time, dose: 100.0 mg/kg/injection, schedule: Q04DX002 (ip), vehicle: saline) was 96 % of control, the T/C (endpoint: mean survival time, dose: 200.0 mg/kg/injection, schedule: Q04DX002 (ip), vehicle: saline) was 100 % of control and the T/C (endpoint: mean survival time, dose: 400.0 mg/kg/injection, schedule: Q04DX002 (ip), vehicle: saline) was 91 % of control.
With Cc1sc2ccccc2c2nc3ccccc3c1-2 the T/C [9] was 106 % of control, the T/C [10] was 104 % of control and the T/C [11] was 107 % of control.
With O=S(=O)(O)SNCCN1CCOCC1 the T/C (endpoint: mean survival time, dose: 6.25 mg/kg/injection, schedule: Q01DX009 (ip), vehicle: saline) was 106 % of control, the T/C [20] was 104 % of control and the T/C (endpoint: mean survival time, dose: 12.5 mg/kg/injection, schedule: Q01DX009 (ip), vehicle: saline) was 98 % of control. The T/C [21] was 102 % of control, the T/C (endpoint: mean survival time, dose: 25.0 mg/kg/injection, schedule: Q01DX009 (ip), vehicle: saline) was 107 % of control and the T/C [22] was 101 % of control.
